Literature values in patent US20240294453A1, “Deuterated agonists and methods of use” (priority 2018, published 2024).

System: subjects with schizophrenia
[1] = 5 mg or 50 mg orally once daily, 24 weeks

O=C(N[C@@H]1C2CCN(CC2)[C@H]1Cc1cccnc1)c1cc2ccccc2o1 [TC-5619]
scores of CSB, UPSA-B, PANSS, CGI-I, CGI-S, or SGI-Cog vs placebo, P (none favored TC-5619) [1]: > 0.05
tolerability [1]: generally well tolerated
SANS score vs placebo, 2-tailed P (5 mg, week 24): 0.159
benefit in some outcome measures in tobacco users (tobacco users, no concordance by dose, country, gender): Sporadic statistical benefit
Scale for the Assessment of Negative Symptoms (SANS) composite score, benefit vs placebo (week 24, orally once daily, 5 mg or 50 mg, added to a new-generation antipsychotic): no statistical benefit
